Source: patent publication US20050137807A1, “Method of visualization of the ADME properties of chemical substances” (priority 2003, published 2005)
Converted amounts (≈) assume the structure as drawn. Like-named read-outs stand apart in the source and are kept apart here.

Experiments:
[1] = cited from earlier work
[2] = cited from earlier work; remark: listed apart in the source
[3] = membrane affinity as a measure of the lipophilicity (TRANSIL technology); type: physicochemical
[4] = water solubility, from the literature; cited from earlier work
human serum albumin = human serum albumin (Homo sapiens, UniProt P02768); assay: binding constant to human serum albumin (TRANSIL technology)
human serum albumin, sequence (P02768 25-609): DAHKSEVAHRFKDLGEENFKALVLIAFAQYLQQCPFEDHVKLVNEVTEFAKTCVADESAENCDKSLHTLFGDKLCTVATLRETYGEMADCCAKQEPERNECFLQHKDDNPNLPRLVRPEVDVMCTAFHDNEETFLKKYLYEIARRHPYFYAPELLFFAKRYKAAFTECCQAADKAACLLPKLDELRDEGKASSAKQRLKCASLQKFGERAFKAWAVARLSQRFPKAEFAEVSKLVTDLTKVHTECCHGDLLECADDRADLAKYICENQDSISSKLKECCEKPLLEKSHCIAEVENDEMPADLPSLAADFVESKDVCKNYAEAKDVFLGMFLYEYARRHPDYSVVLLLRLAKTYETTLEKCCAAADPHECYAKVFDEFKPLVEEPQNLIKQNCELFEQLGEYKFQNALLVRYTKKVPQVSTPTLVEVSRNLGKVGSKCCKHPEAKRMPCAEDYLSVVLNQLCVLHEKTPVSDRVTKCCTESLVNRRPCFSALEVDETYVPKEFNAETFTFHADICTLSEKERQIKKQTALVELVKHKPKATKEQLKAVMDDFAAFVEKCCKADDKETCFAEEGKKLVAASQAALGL
Source text: The effective molecular weight (MW) is obtained simply from the respective empirical formula of the substance. The waters solubilities and the typical administered dosages of these commercially available products are furthermore known from the literature.
The ADME maps in FIGS. 5 to 10 show by way of example a selection of commercially available pharmaceutical substances. The substance names and the associated experimental measurement values for their physicochemical properties are summarised in Table 1.

[5] = log binding constant to human serum albumin, TRANSIL

Row | Compound | LogMA [3] | Solubility [4] [µg/mL] | LogHSA (human serum albumin; human) | also measured
1 | O=C(O)COc1ccc(Cl)cc1Cl [2,4-D] | – | – | – | logP [1]: 2.58; pKa [2]: 2.73
2 | C=CCc1ccccc1OCC(O)CNC(C)C (stereo not shown) [Alprenolol] | 2.699 | 547 (≈ 2190 µM) | – | –
3 | CC(C)(O/N=C(\C(=O)N[C@@H]1C(=O)N2C(C(=O)[O-])=C(C[n+]3ccccc3)CS[C@H]12)c1csc(N)n1)C(=O)O [Ceftazidime] | 1.000 | >500 | −2.495 | –
4 | CO/N=C(\C(=O)N[C@@H]1C(=O)N2C(C(=O)O)=C(CSc3nc(=O)c(=O)[nH]n3C)CS[C@H]12)c1csc(N)n1 [Ceftriaxone] | 0.903 | 958 (≈ 1730 µM) | −3.585 | –
5 | CO/N=C(\C(=O)N[C@@H]1C(=O)N2C(C(=O)O)=C(COC(N)=O)CS[C@H]12)c1ccco1 [Cefuroxime] | 0.477 | 145 (≈ 342 µM) | −2.553 | –
6 | C[C@]12C[C@H](O)[C@H]3[C@@H](CCC4=CC(=O)CC[C@@]43C)[C@@H]1CC[C@@H]2C(=O)CO [Corticosterone] | 2.531 | 143 (≈ 413 µM) | – | –
7 | CNCCCN1c2ccccc2CCc2ccccc21 [Despiramine] | – | 0.99 (≈ 3.72 µM) | – | LogHSA (human serum albumin; [5]): −3.398
8 | C[C@@H]1C[C@H]2[C@@H]3CCC4=CC(=O)C=C[C@]4(C)[C@@]3(F)[C@@H](O)C[C@]2(C)[C@@]1(O)C(=O)CO [Dexamethasone] | – | 93 (≈ 237 µM) | – | –
9 | COc1cccc2c1C(=O)c1c(O)c3c(c(O)c1C2=O)C[C@@](O)(C(=O)CO)C[C@@H]3O[C@H]1C[C@H](N)[C@H](O)[C@H](C)O1 [Doxorubicin] | 2.322 | 93 (≈ 171 µM) | – | LogHSA (human serum albumin; [5]): −1.886
10 | CCn1cc(C(=O)O)c(=O)c2cc(F)c(N3CCNCC3)nc21 [Enoxacin] | 0.954 | 34300 (≈ 107000 µM) | −2.278 | –
11 | CN1CCN(c2c(F)cc3c(=O)c(C(=O)O)cn(CCF)c3c2F)CC1 [Fleroxacin] | 1.301 | – | −2.523 | –
12 | OC(Cn1cncn1)(Cn1cncn1)c1ccc(F)cc1F [Fluconazole] | – | 1086 (≈ 3550 µM) | – | –
13 | CN1C(=O)CN=C(c2ccccc2F)c2cc([N+](=O)[O-])ccc21 [Flunitrazepam] | 2.477 | 72.8 (≈ 232 µM) | – | –
14 | COc1ccc(Cl)cc1C(=O)NCCc1ccc(S(=O)(=O)NC(=O)NC2CCCCC2)cc1 [Glibenclamid] | 2.301 | – | – | LogHSA (human serum albumin): −6.221
15 | N=C(N)N/N=C/c1c(Cl)cccc1Cl [Guanabenz] | 0.602 | 1055 (≈ 4570 µM) | −3.745 | –
16 | O=C(CCCN1CCC(O)(c2ccc(Cl)cc2)CC1)c1ccc(F)cc1 [Haloperidol] | 3.723 | – | −2.745 | –
17 | CN(C)CCCN1c2ccccc2CCc2ccccc21 [Imipramine] | 3.190 | 1 (≈ 3.57 µM) | −3.301 | –
18 | COC(=O)C1=C(C)NC(C)=C(C(=O)OC(C)C)C1c1cccc2nonc12 (stereo not shown) [Isradipin] | 3.699 | 49 (≈ 132 µM) | – | LogHSA (human serum albumin; [5]): −4.301
19 | CC(CCc1ccccc1)NCC(O)c1ccc(O)c(C(N)=O)c1 (stereo not shown) [Labetalol] | 3.620 | 73 (≈ 222 µM) | – | –
20 | Cc1cc(Cl)ccc1OCC(=O)O [MCPA] | – | – | – | logP [1]: 2.75; pKa [2]: 3.07
21 | Cc1ccccc1N1C(=O)c2cc(S(N)(=O)=O)c(Cl)cc2NC1C (stereo not shown) [Metolazone] | 1.531 | – | −4.201 | –
22 | COCCc1ccc(OCC(O)CNC(C)C)cc1 (stereo not shown) [Metoprolol] | 1.591 | – | −2.000 | –

Row | Compound | LogMA [3] | Solubility [4] [µg/mL] | LogHSA (human serum albumin; human) | also measured
23 | CN(Cc1cnc2nc(N)nc(N)c2n1)c1ccc(C(=O)N[C@@H](CCC(=O)O)C(=O)O)cc1 [Metotrexate] | 1.176 | 26000 (≈ 57200 µM) | – | LogHSA (human serum albumin; [5]): −3.796
24 | CCN(CC)CCNC(=O)c1ccc(NC(C)=O)cc1 [N-Acetylprocainamide] | 1.176 | >1000 | – | LogHSA (human serum albumin; [5]): −2.268
25 | CC(C)(C)NCC(O)COc1cccc2c1CC(O)C(O)C2 (stereo not shown) [Nadolol] | 0.602 | 22400 (≈ 72400 µM) | – | –
26 | COC(=O)C1=C(C)NC(C)=C(C(=O)OCC(C)C)C1c1ccccc1[N+](=O)[O-] (stereo not shown) [Nisoldipine] | – | 25 (≈ 64.4 µM) | −5.319 | –
27 | CCOC(=O)C1=C(C)NC(C)=C(C(=O)OC)C1c1cccc([N+](=O)[O-])c1 (stereo not shown) [Nitrendipine] | – | 77 (≈ 214 µM) | −4.824 | –
28 | CCn1cc(C(=O)O)c(=O)c2cc(F)c(N3CCNCC3)cc21 [Norfloxacin] | 0.602 | – | −3.000 | –
29 | Cc1nccn1CC1CCc2c(c3ccccc3n2C)C1=O (stereo not shown) [Ondansetron] | 2.672 | 5.7 (≈ 19.4 µM) | −3.237 | –
30 | C=CCOc1ccccc1OCC(O)CNC(C)C (stereo not shown) [Oxprenolol] | 2.301 | – | −3.301 | –
31 | CC(=O)Nc1ccc(O)cc1 [Paracetamol] | 0.778 | – | −2.000 | –
32 | CC1(C)S[C@@H]2[C@H](NC(=O)Cc3ccccc3)C(=O)N2[C@H]1C(=O)O [Penicilin G] | 1.041 | 50 (≈ 150 µM) | – | LogHSA (human serum albumin; [5]): −4.301
33 | CC(C)=CCN1CCC2(C)c3cc(O)ccc3CC1C2C (stereo not shown) [Pentazocin] | 2.633 | – | – | LogHSA (human serum albumin; [5]): −2.510
34 | CCCC(C)C1(CC)C(=O)NC(=O)NC1=O (stereo not shown) [Pentobarbital] | 2.176 | – | – | LogHSA (human serum albumin; [5]): −2.523
35 | CC1(C)S[C@@H]2[C@H](NC(=O)COc3ccccc3)C(=O)N2[C@H]1C(=O)O [Phenoxymethyl penicillinic acid] | 1.146 | – | – | LogHSA (human serum albumin): −3.102
36 | O=C1NC(=O)C(c2ccccc2)(c2ccccc2)N1 [Phenytoin] | 2.778 | 1267 (≈ 5020 µM) | −3.639 | –
37 | CC(C)NCC(O)COc1cccc2[nH]ccc12 (stereo not shown) [Pindolol] | 2.398 | – | −2.699 | –
38 | CN1C(C(=O)Nc2ccccn2)=C(O)c2ccccc2S1(=O)=O [Piroxicam] | 2.079 | 521 (≈ 1570 µM) | −5.301 | –
39 | CCCN(CCC)S(=O)(=O)c1ccc(C(=O)O)cc1 [Probenecid] | 1.322 | 27.1 (≈ 95 µM) | −4.004 | –
40 | CC(=O)[C@H]1CC[C@H]2[C@@H]3CCC4=CC(=O)CC[C@]4(C)[C@H]3CC[C@]12C [Progesteron] | 3.843 | – | – | LogHSA (human serum albumin; [5]): −6.189
41 | CN(C)CCCN1c2ccccc2Sc2ccccc21 [Promazine] | 3.823 | – | – | LogHSA (human serum albumin; [5]): −3.301
42 | CC(CN1c2ccccc2Sc2ccccc21)N(C)C (stereo not shown) [Promethazine] | 3.992 | – | −3.028 | –
43 | CC(C)NCC(O)COc1cccc2ccccc12 (stereo not shown) [Propranolol] | 3.146 | 609 (≈ 2350 µM) | −4.028 | –
44 | CC(C)NCC(O)c1ccc(NS(C)(=O)=O)cc1 (stereo not shown) [Sotalol] | 1.301 | – | −1.678 | –

Row | Compound | LogMA [3] | Solubility [4] [µg/mL] | LogHSA (human serum albumin; human) | also measured
45 | Cc1nnc(NS(=O)(=O)c2ccc(N)cc2)s1 [Sulfamethizole] | 1.000 | – | −4.000 | –
46 | NC(=O)N1C(=O)/C(=C(\O)c2cccs2)c2cc(Cl)ccc21 [Tenidap] | – | 2676 (≈ 8340 µM) | – | –
47 | COc1cc2nc(N3CCN(C(=O)C4CCCO4)CC3)nc(N)c2cc1OC (stereo not shown) [Terazosin] | 1.785 | 205 (≈ 529 µM) | – | –
48 | CC(C)(C)NCC(O)c1cc(O)cc(O)c1 (stereo not shown) [Terbutaline] | 0.845 | 212800 (≈ 945000 µM) | −2.398 | –
49 | C[C@]12CC[C@H]3[C@@H](CCC4=CC(=O)CC[C@@]43C)[C@@H]1CC[C@@H]2O [Testosteron] | 2.826 | 68 (≈ 236 µM) | – | LogHSA (human serum albumin; [5]): −4.912
50 | Cn1c(=O)c2[nH]cnc2n(C)c1=O [Theophiline] | 0.886 | 2800 (≈ 15500 µM) | – | –
51 | CC(C)(C)NC[C@H](O)COc1nsnc1N1CCOCC1 [Timolol] | 1.477 | 2741 (≈ 8660 µM) | −2.000 | –
52 | CCCCNC(=O)NS(=O)(=O)c1ccc(C)cc1 [Tolbutamid] | – | 109 (≈ 403 µM) | – | –
53 | NC[C@H]1CC[C@H](C(=O)O)CC1 [Tranexamic acid] | −0.301 | – | −4.000 | –
54 | OC(CCN1CCCCC1)(c1ccccc1)C1CCCCC1 (stereo not shown) [Trihexylphenidyl] | 2.415 | – | – | LogHSA (human serum albumin; [5]): −3.006
55 | CCCC(CCC)C(=O)O [Valproic acid] | 1.041 | 895 (≈ 6210 µM) | −3.921 | –
56 | COc1cc(OC)nc(NC(=O)NS(=O)(=O)N(C)S(C)(=O)=O)n1 [amidosulfuron] | – | – | – | logP [1]: 1.63; pKa [2]: 3.58
57 | COc1cc(OC)nc(NC(=O)NS(=O)(=O)Cc2ccccc2C(=O)O)n1 [bensulfuron] | – | – | – | logP [1]: 0.62; pKa [2]: 5.2
58 | COC(=O)c1cc(Oc2ccc(Cl)cc2Cl)ccc1[N+](=O)[O-] [bifenox] | – | – | – | logP [1]: 4.5; pKa [2]: 13.8
59 | CCC(C)n1c(=O)[nH]c(C)c(Br)c1=O (stereo not shown) [bromacil] | – | – | – | logP [1]: 1.88; pKa [2]: 9.27
60 | CCOC(=O)c1ccccc1S(=O)(=O)NC(=O)Nc1nc(Cl)cc(OC)n1 [chlorimuron-ethyl] | – | – | – | logP [1]: 2.7; pKa [2]: 4.2
61 | COc1cc(Cl)nc(NC(=O)NS(=O)(=O)c2ccccc2C(=O)O)n1 [chlorimuron] | – | – | – | logP [1]: 0.11; pKa [2]: 4.2
62 | C[C@@H](Oc1ccc(Cl)cc1Cl)C(=O)O [dichlorprop-P] | – | – | – | pKa [2]: 3.67
63 | Clomipramin | 4.104 | 0.294 | – | LogHSA (human serum albumin; [5]): −2.796
64 | Oxacepam | 2.342 | 179 | – | LogHSA (human serum albumin; [5]): −4.000
